Source: US12157736B2, “Spiro-lactam NMDA modulators and methods of using same” (Tenacia Biotechnology (Hong Kong) Co., Limited, priority 2016, dated 2024)

Assays:
[1] = biological target: T1, NMDAR2A (Homo sapiens, UniProt Q12879); experiment: NMDAR agonist assay, [3H]MK-801 binding, NMDAR2A expressing HEK cell membranes; assay type: biochemical; conditions: 50 μM glutamate; for EC50: read-out: NMDAR2A: log EC50 (converted)
T1 construct: expressed in transfected cells; host or cells: HEK cells (membrane extract)
Procedure: (§1) Assays were conducted as described by Moskal et al., “GLYX-13: a monoclonal antibody-derived peptide that acts as an N-methyl-D-aspartate receptor modulator,” Neuropharmacology, 49, 1077-87, 2005. These studies were designed to determine if the test compounds act to facilitate NMDAR activation in NMDAR2A, NMDAR2B, NMDAR2C or NMDAR2D expressing HEK cell membranes as measured by increases in [^3H]MK-801 binding.
(§2) In the assay, 300 μg of NMDAR expressing HEK cell membrane extract protein was preincubated for 15 minutes at 25° C. in the presence of saturating concentrations of glutamate (50 μM) and varying concentrations of test compound (1×10^−15M−1×10^−7M), or 1 mM glycine. Following the addition of […] of [^3H]MK-801 (22.5 Ci/mmol), reactions were again incubated for 15 minutes at 25° C. (nonequilibrium conditions). Bound and free [^3H]MK-801 were separated via rapid filtration using a Brandel apparatus.
(§3) In analyzing the data, the DPM (disintegrations per minute) of [^3H]MK-801 remaining on the filter were measured for each concentration of test compound or for 1 mM glycine. The DPM values for each concentration of a ligand (N=2) were averaged. The baseline value was determined from the best fit curve of the DPM values modeled using the GraphPad program and the log(agonist) vs. response (three parameters) algorithm was then subtracted from all points in the dataset. The % maximal [3H]MK-801 binding was then calculated relative to that of 1 mM glycine: all baseline subtracted DPM values were divided by the average value for 1 mM glycine. The EC50 and % maximal activity were then obtained from the best fit curve of the % maximal [3H]MK-801 binding data modelled using the GraphPad program and the log(agonist) vs. response (three parameters) algorithm.
(§4) The tables below summarize the results for the wild type […] NMDAR2A, NMDAR2B, NMDAR2C, and NMDAR2D, and whether the compound is not an agonist (−), is an agonist (+), or is a strong agonist (++), where column A is based on the % maximal [3H]MK-801 binding relative to 1 mM glycine (−=0; <100%=+; and >100%=++); and column B is based on log EC50 values (0=−; ≥1×10^−9 M (e.g., −8)=+; and <1×10^−9 M (e.g., −10)=++).

[2] = biological target: T2, NMDAR2B (Homo sapiens, UniProt Q13224); experiment: NMDAR agonist assay, [3H]MK-801 binding, NMDAR2B expressing HEK cell membranes; assay type: biochemical; conditions: 50 μM glutamate; for EC50: read-out: NMDAR2B log EC50 (converted)
T2 construct: expressed in transfected cells; host or cells: HEK cells (membrane extract)
Procedure: as §1, §2, §3, §4

[3] = IV pharmacokinetics; assay type: in vivo, Sprague Dawley rats; conditions: rat, 2 mg/kg, normal saline
Procedure: Sprague Dawley rats were dosed intravenously using a normal saline formulation containing 2 mg/kg of the compounds identified in the below table. The table below summarizes the results of the IV pharmacokinetics.

[4] = test system: rats; experiment: Porsolt forced swim test; assay type: in vivo, Sprague Dawley rats; conditions: 1 h post-dose, 20 mg/kg, dosed 3 times (24 h, 5 h and 1 h) prior to testing; positive control
Procedure: A non-clinical in vivo pharmacology study (Porsolt assay) was performed to measure antidepressant-like effects. A negative control (0.5% sodium carboxymethyl cellulose in 0.9% sterile saline vehicle) and a positive control (fluoxetine) are shown for comparison against test compound. The study allowed for the evaluation of the effects of each compound on the Porsolt forced swim test as assessed by the rats' response (reduced floating time) during a 5-minute swimming test.
Male 2-3 month old Sprague Dawley rats were used (Harlan, Indianapolis, IN). Rats were housed in Lucite cages with aspen wood chip bedding, maintained on a 12:12 light:dark cycle (lights on at 5 AM), and given ad libitum access to Purina lab chow (USA) and tap water throughout the study.
The Porsolt forced swim test adapted for use in rats was performed as described by Burgdorf et al., (The long-lasting antidepressant effects of rapastinel (GLYX-13) are associated with a metaplasticity process in the medial prefrontal cortex and hippocampus. Neuroscience 308:202-211, 2015). Animals were placed in a 46 cm tall×20 cm in diameter clear glass tube filled to 30 cm with tap water (23±1° C.) for 15 min on the first day (habituation) and 5 min on the subsequent test day. Positive control fluoxetine was dosed 3 times (24 h, 5 h and 1 h) prior to testing. Animals were tested 1 h or 24 h post-dosing with the test compounds or vehicle. Animals received a 15 min habituation session 1 day before the 5 min test. Water was changed after every other animal. Animals were videotaped, and floating time as defined as the minimal amount of effort required to keep the animals head above water was scored offline by a blinded experimenter with high inter-rater reliability (Pearson's r>0.9).
Each compound tested at dose level shown. Significance vs. vehicle group for each experiment is marked. […] A compound marked “No” was not statistically significant from vehicle. Data was averaged for test compound and vehicle groups (N approximately 8 per group) and the percent reduction in floating for group treated with test compound relative to group treated with vehicle is shown.

T1 sequence (Q12879 23-1464, species assumed, other chains not shown): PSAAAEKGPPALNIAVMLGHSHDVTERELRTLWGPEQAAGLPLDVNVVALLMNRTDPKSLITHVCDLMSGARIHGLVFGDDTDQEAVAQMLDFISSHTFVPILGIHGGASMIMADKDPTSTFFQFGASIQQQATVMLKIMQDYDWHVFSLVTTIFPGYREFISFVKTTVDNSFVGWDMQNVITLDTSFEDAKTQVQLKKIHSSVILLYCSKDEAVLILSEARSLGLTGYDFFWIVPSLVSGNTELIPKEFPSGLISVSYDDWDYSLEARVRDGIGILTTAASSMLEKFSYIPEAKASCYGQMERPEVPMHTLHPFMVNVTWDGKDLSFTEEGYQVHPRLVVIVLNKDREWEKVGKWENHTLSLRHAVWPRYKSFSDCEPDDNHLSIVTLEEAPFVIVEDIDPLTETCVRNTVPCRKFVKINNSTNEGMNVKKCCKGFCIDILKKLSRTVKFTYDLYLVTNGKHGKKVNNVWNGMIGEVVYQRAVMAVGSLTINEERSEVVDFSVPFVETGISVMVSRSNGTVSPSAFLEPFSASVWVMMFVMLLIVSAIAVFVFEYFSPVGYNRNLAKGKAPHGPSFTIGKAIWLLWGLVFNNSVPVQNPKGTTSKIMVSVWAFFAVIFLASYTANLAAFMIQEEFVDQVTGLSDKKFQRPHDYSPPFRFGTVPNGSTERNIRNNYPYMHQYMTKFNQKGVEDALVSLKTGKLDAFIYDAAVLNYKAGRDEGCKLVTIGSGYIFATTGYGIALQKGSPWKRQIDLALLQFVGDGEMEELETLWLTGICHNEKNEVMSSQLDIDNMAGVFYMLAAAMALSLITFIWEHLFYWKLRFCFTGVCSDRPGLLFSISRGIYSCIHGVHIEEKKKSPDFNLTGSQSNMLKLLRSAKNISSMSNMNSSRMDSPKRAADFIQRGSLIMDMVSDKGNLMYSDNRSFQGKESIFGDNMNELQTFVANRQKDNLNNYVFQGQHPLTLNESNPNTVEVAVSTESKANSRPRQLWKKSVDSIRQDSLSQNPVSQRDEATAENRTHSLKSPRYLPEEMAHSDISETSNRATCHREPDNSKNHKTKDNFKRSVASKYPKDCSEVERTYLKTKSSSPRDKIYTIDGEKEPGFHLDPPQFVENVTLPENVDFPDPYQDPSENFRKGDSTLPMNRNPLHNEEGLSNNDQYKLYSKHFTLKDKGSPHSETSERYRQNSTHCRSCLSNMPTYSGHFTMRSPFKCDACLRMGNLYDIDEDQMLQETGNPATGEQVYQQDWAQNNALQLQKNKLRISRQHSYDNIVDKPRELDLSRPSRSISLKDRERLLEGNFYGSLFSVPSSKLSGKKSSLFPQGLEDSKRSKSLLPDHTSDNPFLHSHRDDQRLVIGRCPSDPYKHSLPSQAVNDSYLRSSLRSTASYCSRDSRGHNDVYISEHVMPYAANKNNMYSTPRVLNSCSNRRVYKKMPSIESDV
T2 sequence (Q13224 27-1484, species assumed, other chains not shown): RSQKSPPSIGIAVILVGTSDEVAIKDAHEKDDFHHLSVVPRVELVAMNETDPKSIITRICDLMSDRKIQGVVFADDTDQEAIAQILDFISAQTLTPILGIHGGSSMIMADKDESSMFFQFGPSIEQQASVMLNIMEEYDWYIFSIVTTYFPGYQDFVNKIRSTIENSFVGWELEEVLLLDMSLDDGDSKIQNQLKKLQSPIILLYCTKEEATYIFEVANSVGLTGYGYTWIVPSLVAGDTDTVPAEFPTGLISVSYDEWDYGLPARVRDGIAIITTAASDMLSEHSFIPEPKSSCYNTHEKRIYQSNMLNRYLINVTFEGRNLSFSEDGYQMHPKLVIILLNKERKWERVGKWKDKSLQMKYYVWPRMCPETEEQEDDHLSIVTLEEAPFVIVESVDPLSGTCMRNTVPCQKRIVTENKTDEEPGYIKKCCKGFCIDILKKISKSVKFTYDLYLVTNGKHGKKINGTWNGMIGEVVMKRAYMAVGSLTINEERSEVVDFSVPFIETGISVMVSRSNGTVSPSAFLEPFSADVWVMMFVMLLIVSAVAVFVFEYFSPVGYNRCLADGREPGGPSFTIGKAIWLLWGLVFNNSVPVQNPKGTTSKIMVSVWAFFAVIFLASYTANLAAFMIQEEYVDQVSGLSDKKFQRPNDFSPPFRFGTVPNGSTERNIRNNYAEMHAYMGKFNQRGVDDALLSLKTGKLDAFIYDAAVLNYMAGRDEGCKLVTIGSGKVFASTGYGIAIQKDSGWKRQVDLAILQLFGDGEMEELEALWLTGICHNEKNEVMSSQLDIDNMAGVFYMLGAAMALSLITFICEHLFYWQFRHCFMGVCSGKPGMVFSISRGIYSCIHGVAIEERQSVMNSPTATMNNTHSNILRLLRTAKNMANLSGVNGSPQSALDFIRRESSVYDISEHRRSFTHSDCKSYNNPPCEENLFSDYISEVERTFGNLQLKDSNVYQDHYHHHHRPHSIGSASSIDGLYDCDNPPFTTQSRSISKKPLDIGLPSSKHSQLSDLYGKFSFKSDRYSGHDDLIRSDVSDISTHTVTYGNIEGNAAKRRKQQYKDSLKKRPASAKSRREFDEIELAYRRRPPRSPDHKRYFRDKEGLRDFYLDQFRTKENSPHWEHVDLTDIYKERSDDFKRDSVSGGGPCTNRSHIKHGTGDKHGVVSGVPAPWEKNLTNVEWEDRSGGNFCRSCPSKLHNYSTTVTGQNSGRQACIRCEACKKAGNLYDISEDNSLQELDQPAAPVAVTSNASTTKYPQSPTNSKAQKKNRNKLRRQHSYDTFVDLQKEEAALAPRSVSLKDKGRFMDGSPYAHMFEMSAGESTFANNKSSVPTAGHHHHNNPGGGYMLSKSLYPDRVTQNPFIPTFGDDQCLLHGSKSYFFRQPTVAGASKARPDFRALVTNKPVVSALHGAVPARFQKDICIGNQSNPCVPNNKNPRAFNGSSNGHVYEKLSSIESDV

Row | NMDAR2A: % maximal [3H]MK-801 binding relative to 1 mM glycine [1] | NMDAR2B: % maximal [3H]MK-801 binding relative to 1 mM glycine [2] | EC50 [2] [nM] | EC50 [1] [nM] | CI [3] [mL/min/kg] | Emax ([1]; read-out: NMDAR2A: % maximal [3H]MK-801 binding relative to 1 mM glycine) [%] | Compound | Significance vs. vehicle [4]
1 | − (−=0) | − (−=0) | > 100 |  |  |  | CC1CC(=O)N(c2ccc(F)cc2)C12CN(Cc1ccccc1)C2=O (single isomer, unassigned) [BY, 2-benzyl-5-(4-fluorophenyl)-8-methyl-2,5-diazaspiro[3.4]octane-1,6-dione] | 
2 |  | − (−=0) | > 100 | > 100 |  |  | C[C@@H](O)[C@@H](C(=O)NCc1ccccc1)N1CC2(CCNC(=O)C2)C1=O (single isomer, unassigned) [CA] | 
3 | − (−=0) | + (<100%=+) |  |  | 25.31 |  | C[C@@H](O)[C@@H](C(=O)NCc1ccccc1)N1CC2(CCNC(=O)C2)C1=O (single isomer, unassigned) [CB] | 
4 |  |  |  | > 100 | 15.65 | 0 | C[C@@H](O)[C@@H](C(=O)N(C)C)N1CC2(CCNC(=O)C2)C1=O (single isomer, unassigned) [CC] | 
5 |  | − (−=0) | > 100 | > 100 |  |  | CC1CC(=O)N(c2ccc(F)cc2)C12CN(CC(N)=O)C2=O (single isomer, unassigned) [CE, 2-(5-(4-fluorophenyl)-8-methyl-1,6-dioxo-2,5-diazaspiro[3.4]octan-2-yl)acetamide] | 
6 | − (−=0) | + (<100%=+) |  |  |  |  | CC1CC(=O)N(c2ccc(F)cc2)C12CN(CC(N)=O)C2=O (single isomer, unassigned) [CF, 2-(5-(4-fluorophenyl)-8-methyl-1,6-dioxo-2,5-diazaspiro[3.4]octan-2-yl)acetamide] | 
7 |  | + (<100%=+) |  | > 100 |  |  | CC1C(N)C(=O)N(C)C12CN(Cc1ccccc1)C2=O (single isomer, unassigned) [CG, 7-amino-2-benzyl-5,8-dimethyl-2,5-diazaspiro[3.4]octane-1,6-dione] | 
8 | − (−=0) | − (−=0) | > 100 |  |  |  | CC1C(N)C(=O)N(C)C12CN(Cc1ccccc1)C2=O (single isomer, unassigned) [CH, 7-amino-2-benzyl-5,8-dimethyl-2,5-diazaspiro[3.4]octane-1,6-dione] | 
9 |  |  |  |  | 32 |  | COc1ccc(CN2CC3(CCN(C)C(=O)C3)C2=O)cc1 (single isomer, unassigned) [CI, 2-(4-methoxybenzyl)-7-methyl-2,7-diazaspiro[3.5]nonane-1,6-dione] | 
10 | − (−=0) | − (−=0) | > 100 | > 100 |  |  | CCN1CCC2(CC1=O)CN(Cc1ccc(OC)cc1)C2=O (single isomer, unassigned) [CK, 7-ethyl-2-(4-methoxybenzyl)-2,7-diazaspiro[3.5]nonane-1,6-dione] | 
11 | + (<100%=+) | + (<100%=+) |  |  | 41.73 |  | CCN1CCC2(CC1=O)CN(Cc1ccc(OC)cc1)C2=O (single isomer, unassigned) [CL, 7-ethyl-2-(4-methoxybenzyl)-2,7-diazaspiro[3.5]nonane-1,6-dione] | 
12 |  |  | > 100 | > 100 |  |  | COc1ccc(CN2CC3(CCNC(=S)C3)C2=O)cc1 (single isomer, unassigned) [CM, 2-(4-methoxybenzyl)-6-thioxo-2,7-diazaspiro[3.5]nonan-1-one] | 
13 | + (<100%=+) | + (<100%=+) |  |  |  |  | CN1CCC2(CC1=O)CN(Cc1ccccc1)C2=O (single isomer, unassigned) [CX, 2-benzyl-7-methyl-2,7-diazaspiro[3.5]nonane-1,6-dione] | 
14 |  | − (−=0) | > 100 | > 100 |  |  | CNC(=O)[C@H]([C@@H](C)O)N1CC2(CCNC(=O)C2)C1=O (single isomer, unassigned) [DA] | 
15 | − (−=0) | ++ (>100%=++) |  |  |  |  | CNC(=O)[C@H]([C@@H](C)O)N1CC2(CCNC(=O)C2)C1=O (single isomer, unassigned) [DB] | 
16 | + (<100%=+) | − (−=0) |  |  |  |  | CC1CC(=O)N(c2ccc(F)cc2)C12CN([C@H](C(N)=O)[C@@H](C)O)C2=O (single isomer, unassigned) [DL] | 
17 |  |  |  |  |  |  | CNCCC(Oc1ccc(C(F)(F)F)cc1)c1ccccc1 (stereo not drawn) [Fluoxetine, fluoxetine, reference compound] | Yes
